Assay results from ChEMBL document CHEMBL1135067, “Synthesis and antithrombotic activity of carbolinecarboxyl RGD sequence” (2002).
Where a SMILES comes first, the peptide text is derived from it. [ ]: non-standard residue; d: D form. Tpi = O=C(O)[C@@H]1Cc2c([nH]c3ccccc23)CN1

Key:
Assay type in all cases: functional
Oryctolagus cuniculus [1] = species: Oryctolagus cuniculus; assay: Tested in vitro for maximal rate of platelet aggregation induced by adenosine diphosphate (10 e5 mol/L) at a dose of 10 e7 mol/L in rabbit blood
Oryctolagus cuniculus [2] = species: Oryctolagus cuniculus; assay: Tested in vitro for the maximal rate of platelet aggregation induced by platelet activating factor (10 e-7 mol/L) at a dose of 10 e5 mol/L in rabbit blood
Oryctolagus cuniculus [3] = species: Oryctolagus cuniculus; assay: Tested in vitro for maximal rate of platelet aggregation induced by adenosine diphosphate (10 e5 mol/L) at a dose of 10 e5 mol/L in rabbit blood
SACC-LM = assay: Tested for the effect of compound on the adhesion of high pulmonary metastatic SACC cell line SACC-LM and platelets at 5 mg/mL
Oryctolagus cuniculus [4] = species: Oryctolagus cuniculus; assay: Tested in vitro for maximal rate of platelet aggregation induced by adenosine diphosphate (10 e5 mol/L) at a dose of 10 e6 mol/L in rabbit blood
Rattus norvegicus [5] = assay: Tested for the effect on the wet thrombus weight at a dose of 5 umol/kg in male wistar anesthetized rat
Oryctolagus cuniculus [6] = species: Oryctolagus cuniculus; assay: Tested in vitro for the maximal rate of platelet aggregation induced by platelet activating factor (10 e-7 mol/L) at a dose of 10 e6 mol/L in rabbit blood
Oryctolagus cuniculus [7] = species: Oryctolagus cuniculus; assay: Tested in vitro for the maximal rate of platelet aggregation induced by platelet activating factor (10 e-7 mol/L) at a dose of 10 e7 mol/L in rabbit blood
Rattus norvegicus [8] = assay: Tested for the effect on the dry thrombus weight at a dose of 5 umol/kg in male wistar anesthetized rat
Rattus norvegicus [9] = assay: Tested for the effect on the wet thrombus weight at a dose of 5 uM/kg in male wistar anesthetized rat
Rattus norvegicus [10] = assay: Tested for the effect on the dry thrombus weight at a dose of 5 uM/kg in male wistar anesthetized rat

| SMILES | Am (Oryctolagus cuniculus [1]) [%] | Am (Oryctolagus cuniculus [2]) [%] | Am (Oryctolagus cuniculus [3]) [%] | Activity (SACC-LM) [%] | Am (Oryctolagus cuniculus [4]) [%] | Thrombus weight (Rattus norvegicus [5]) [mg] | Am (Oryctolagus cuniculus [6]) [%] | Am (Oryctolagus cuniculus [7]) [%] | Thrombus weight (Rattus norvegicus [8]) [mg] | Thrombus weight (Rattus norvegicus [9]) [mg] | Thrombus weight (Rattus norvegicus [10]) [mg] |
| --- | --- | --- | --- | --- | --- | --- | --- | --- | --- | --- | --- |
| NC(N)=NCCC[C@H](N)C(=O)NCC(=O)N[C@@H](CC(=O)O)C(=O)N[C@@H](Cc1ccccc1)C(=O)O (H-RGDF-OH) | 35.7 | 7.81 | 7.36 | 29.7 | 22.11 | 26.61 | 23.8 | 39.18 | 4.14 |  |  |
| CC(C)[C@H](NC(=O)[C@H](CC(=O)O)NC(=O)CNC(=O)[C@@H](N)CCCN=C(N)N)C(=O)O (H-RGDV-OH) | 51.16 | 19.56 | 9.8 | 32.1 | 29.4 | 34.62 | 34.17 | 54.36 | 6.03 |  |  |
| N=C(N)NCCC[C@H](NC(=O)[C@@H]1Cc2c([nH]c3ccccc23)CN1)C(=O)NCC(=O)N[C@@H](CC(=O)O)C(=O)N[C@@H](Cc1ccccc1)C(=O)O (H-[Tpi]RGDF-OH) | 36.05 | 20.05 | 9.01 | 28.1 | 21.05 |  | 25.54 | 36.05 | 2.76 | 22.3 |  |
| N=C(N)NCCC[C@H](NC(=O)[C@@H]1Cc2c([nH]c3ccccc23)CN1)C(=O)NCC(=O)N[C@@H](CC(=O)O)C(=O)N[C@@H](CO)C(=O)O (H-[Tpi]RGDS-OH) | 50.16 | 28.07 | 16.11 | 36.1 | 43.05 | 28.09 | 34.15 | 56.1 | 4.98 |  |  |
| CC(C)[C@H](NC(=O)[C@H](CC(=O)O)NC(=O)CNC(=O)[C@H](CCCN=C(N)N)NC(=O)[C@@H]1Cc2c([nH]c3ccccc23)CN1)C(=O)O (H-[Tpi]RGDV-OH) | 50.2 | 24.11 | 10.75 | 30.2 | 26.01 | 29.49 | 35.05 | 54.1 | 4.87 |  |  |
| N=C(N)NCCC[C@H](N)C(=O)NCC(=O)N[C@@H](CC(=O)O)C(=O)NC(CO)C(=O)O (single isomer, unassigned) | 52.85 | 21.16 | 14.22 | 35.8 | 40.54 | 43.61 | 36.15 | 57.2 | 7.68 |  |  |
| O=C(O)[C@@H]1Cc2c([nH]c3ccccc23)CN1 [CYCLOMETHYLTRYPTOPHAN] | 53.66 | 35.66 | 24.6 | 45.6 | 45.16 | 42.99 | 50.18 | 55.15 |  |  | 7.17 |
